Test results from patent publication EP0443560A2, “HIV protease inhibitors” (priority 1990, dated 1991).

Columns and labels:
[1] = biological target: T1, HIV protease (Human immunodeficiency virus type 1 group M subtype B, UniProt P04585); test: Recombinant HIV Protease HPLC Assay; format: biochemical
T1 construct: HIV protease was expressed in E. coli [construct pBRT1 prt⁺; made in house; host or cells: E. coli
From the text: The procedure is based on the capacity of the test compound to inhibit enzymatic cleavage by HIV protease of a decapeptide (the substrate) having an amino acid sequence which includes a known HIV protease cleavage site of a HIV polyprotein; see H.G. Krausslich et al., Proc. Natl. Acad. Sci. USA, 86, 807 (1989). Details of this assay together with the results obtained for exemplified compounds of formula 1 are described in the examples hereinafter.
Recombinant HIV Protease HPLC Assay:
HIV protease was expressed in E. coli [construct pBRT1 prt⁺, see W.G. Farmerie et al., Science, 236, 305 (1987)], according to the following protocol: Unless stated otherwise, all solutions are aqueous solutions.
E. coli cells containing the pBRT1 prt⁺ plasmid were used to inoculate a seed culture media composed of Luria-Bertani Broth containing 100µg/mL of ampicillin. Flasks were incubated at 37° under agitation for 17 h. Production flasks containing sterile M9 broth, supplemented with 100µg/ml of ampicillin, were inoculated at a level of 1% (v/v) using the seed culture described above. Total volume in each production flask was 500 mL in a 2 L Erlenmeyer flask. Flasks were incubated at 37° under agitation until a cell concentration corresponding to an optical density (λ = […]) of 0.6 was reached (no dilution). This time span was routinely 3-4 h. Flasks were then supplemented with 5mM isopropylthiogalactoside (IPTG, Research Organics, Cleveland, Ohio, USA) and incubation was continued until the cell concentration reached an optical density of 0.2 at 16-fold dilution. Flasks were then supplemented with 1mM phenylmethylsulfonyl fluoride (PMSF) and rapidly chilled to 4°. The bacterial cells were recovered by centrifugation at 4°. The wet pellet was stored at -70°.
All steps below were performed at 4° unless otherwise indicated. Thawed cells were mixed with buffer A [50 mM tris(hydroxymethyl)[…] HCl(Tris-HCl, pH 7.4); 0.6 mM ethylenediaminetetraacetic acid (EDTA); 0.375 M NaCl, 0.2% Nonidet P-40 ® (BDH Chemicals Ltd., Poole, UK); 1mM PMSF], at a ratio of one part cells to nine parts buffer A. Diatomaceous earth (Celite 545 ® , John Manville, Lompoc, CA, USA) was added at a ratio of two parts to one part of wet cell weight. The resulting slurry was homogenized at high speed (ca. 20,000 rpm) on a Waring ® industrial blender for 8 x 15 sec. pulses. Cell debris/Celite ® was collected by centrifugation and the resulting pellet was extracted with 4.5 parts of buffer A to one part wet solids using the homogenization procedure described above. Supernatants from both homogenization steps were combined and soluble protein was precipitated by the addition of solid (NH₄)₂SO₄ to yield a final concentration of 75% saturation. This mixture was agitated for 60 min and the precipitate was recovered by centrifugation. The resulting pellet was suspended in buffer B [50mM Tris-HCl, pH 8; 30 mM NaCl; 1 mM DL-dithiothreitol(DTT); 1 mM EDTA; 1 mM PMSF; 10% glycerol], and dialyzed for 18h against the same buffer.
An aliquot of the dialyzed extract containing 150 mg of the protein was loaded onto a Sephadex A25 ® anion exchange column. (Pharmacia, Uppsala, Sweden) with bed dimensions of 70 cm length and 2.5 cm diameter. The sample was eluted isocratically with buffer B at a linear flow rate of 10 cm/h. Fractions containing HIV protease activity (see below for assay description) were combined, and soluble protein was precipitated by the addition of saturated aqueous (NH₄)₂SO₄ to yield a total (NH₄)₂SO₄ concentration of 85% saturation. Precipitated protein was removed by centrifugation and the resulting pellet was dissolved in buffer C [50 mM 2-(4-morpholino)ethanesulfonic acid (MES), pH 5.5; 150 mM NaCl; 1 mM DTT; 1 mM EDTA; 10% glycerol). This preparation was dialyzed for 18h against buffer C, and then frozen at -70°. All crude extracts were purified by chromatography in aliquots containing 150 mg of protein in the same manner as described above. […]

[2] = system: H9/HTLV-IIIB; test: Inhibition of syncytia formation in HIV-infected C8166 cells (antiviral screen adapted from plaque assay of Harada et al.); format: cell-based; settings: Human immunodeficiency virus 1, IIIB, 72 h
From the text: Typical of such procedures are those described by S. Harada and N. Yamamoto, Jpn. J. Cancer Res. (Gann), 76, 432 (1985), and S. Harada et al., Science, 229, 563 (1985). An assay based on the latter procedures is described in the examples hereinafter.
The following protocol, used for screening antiviral effects of the compounds of formula 1 , is adapted from a plaque assay utilizing HTLV-I transformed cells which was developed by Harada et al., supra. HTLV-I transformed cells are used in these assays because of the rapidity with which HIV will replicate in these cells. • 1. The test compound is dissolved in dimethylsulfoxide to a concentration of 5 mg/mL. The resultant solution can be stored at 4° until used. • 2. The resultant solution is diluted in RPMI 1640 (Gibco Laboratories, St. Lawrence, MA, USA) to four times (4x) the final concentration which is to be tested. Once diluted in RPMI 1640, the solution is used in the cell culture assay within 4 h. • 3. The 4x solution (50µL) is added to triplicate wells of a 96 well flat bottomed microtiter plate. […] Infectious titer of virus stocks are as previously determined by end point dilution on C8166 cells. […] Plates are then removed and centers of syncytia are counted in each well by low power phase contrast light microscopy. […] Percent inhibition of syncytia formation is calculated by the formula: [formula]

Compound | IC50 [1] | inhibition at 20 µg/mL [2]
CC(C)(C)OC(=O)NC(CC1CCCCC1)C(O)CC(=O)NC(CCC(=O)O)C(=O)NCCCc1ccccc1 (stereo not shown) [Example 4, Boc-ACHPA-Glu-NHCH₂CH₂CH₂Ph] | 7 nM | 96%
CC(C)(C)OC(=O)NC(CNC(CC1CC1)C(=O)NC(CCC(=O)O)C(=O)NCCCc1ccccc1)Cc1ccccc1 (stereo not drawn) [Example 2, Boc-PheΨ[CH₂NH]Cpa-Glu-NHCH₂CH₂CH₂Ph] | 13 nM | 54%
